Read-outs that look alike come from different tables or passages of the source.
Target: T1, E. Coli LpxC (Escherichia coli, UniProt P0A725)
T1 sequence (P0A725 1-305): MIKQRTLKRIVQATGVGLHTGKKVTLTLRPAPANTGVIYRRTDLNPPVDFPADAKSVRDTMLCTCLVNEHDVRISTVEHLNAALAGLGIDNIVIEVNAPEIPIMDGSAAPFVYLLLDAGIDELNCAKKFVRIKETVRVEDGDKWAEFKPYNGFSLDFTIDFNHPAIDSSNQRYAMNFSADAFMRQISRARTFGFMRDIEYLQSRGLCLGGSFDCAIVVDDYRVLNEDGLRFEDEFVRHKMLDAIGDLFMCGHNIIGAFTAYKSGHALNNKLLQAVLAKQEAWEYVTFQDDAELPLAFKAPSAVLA
Experiment: Inhibition of LpxC from E. coli
Format: biochemical
Details: for inhibition at 50 µM: compound at 50 μM
Source text: Methods for assessing inhibition of LpxC are known in the art.

[1] = Table 1, read-out: % Inhibition E. Coli LpxC at 50 μM
[2] = Table 2, values in parentheses, read-out: (% Inhibition of E. Coli LpxC at 50 μM)

SMILES	inhibition at 50 µM [1] [%]	inhibition at 50 µM [2] [%]	IC50 (E. Coli LpxC, Table 2, values without parentheses) [µM]
O=c1cc(CO)oc(CNc2ccc(-c3ccccc3)cc2)c1O [Compound 010]	39	39	–
O=c1ccoc(CNc2ccc(-c3ccccc3)cc2)c1O [Compound 013]	67	67	–
Cc1cc(=O)c(O)c(CNc2ccc(-c3ccccc3)cc2)o1 [Compound 014]	23	23	–
COc1ccc(-c2ccc(NCc3oc(CO)cc(=O)c3O)cc2)cc1 [Compound 018, 3-hydroxy-6-(hydroxymethyl)-2-(((4′-methoxy-[1,1′-biphenyl]-4-yl)amino)methyl)-4H-pyran-4-one]	81	–	12.7
COc1ccc(-c2ccc(NCc3occc(=O)c3O)cc2)cc1 [Compound 027]	13	13	–
COC(=O)c1cc(=O)c(O)c(CNc2ccc(-c3ccc(OC)cc3)cc2)o1 [Compound 035]	29	29	–
